These results are taken from US11306073B2, “N-acylurea derivative and composition comprising same for prevention or treatment of cardiovascular disease” (KOREA UNIVERSITY RESEARCH AND BUSINESS FOUNDATION, priority 2016, dated 2022).

Test [1] has as its system CHO/αIIbβ3 cell line. Nature of the test: Screening of talin antagonist candidates: binding of CHO/αIIbβ3 cells to fibrinogen-coated plate (CCK-8 readout). In kind it is cell-based. Particulars: 0.2 mM of candidate; compared to a negative control; FIG. 2; read-out: inhibition of the binding between the CHO/αIIbβ3 cell line and fibrinogen. As for the experimental part: Cells expressing platelet integrin αIIbβ3 were incubated with 0.2 mM of candidates, and the binding between the cells and fibrinogen was verified according to the experimental method shown in FIG. 1. In FIG. 2, 0% is a negative control and represents the degree to which cells adhere to a surface coated with bovine serum albumin (BSA) instead of fibrinogen, and 100% is a positive control and represents the degree to which cells adhere to fibrinogen in the absence of any candidate. The ability of candidates to inhibit fibrinogen binding was normalized to 100%, and the mean and standard error of three experiments are graphically shown.
Platelets bind to fibrinogen present in blood and produce thrombi. This binding is mediated by integrin αIIbβ3 present in the platelet cell membrane, and this integrin binds to fibrinogen after being activated by talin. In order to enable high-throughput efficacy testing by simplifying this procedure into a cell line-based experiment, integrin αIIbβ3 was first stably expressed in the CHO cell line using lentivirus, thereby constructing a CHO/αIIbβ3 cell line. The constructed cell line was cultured in a fibrinogen-coated 96-well plate for 1 hour and washed, after which the amount of remaining cells was measured to evaluate the efficacy of a talin antagonist candidate. In this procedure, in order to measure the relative amount of the CHO/αIIbβ3 cell line remaining in the well due to binding to fibrinogen, a cell counting kit-8 (CCK-8) was used to measure the activity of dehydrogenase present in the remaining cells. When the activity of dehydrogenase appeared due to the presence of the cells, the color of CCK-8 changed from yellow to orange (FIG. 1). To measure the degree to which the color changed to orange, the absorbance at a wavelength of 450 nm was measured with a plate reader. This enabled easy, fast and reliable high-throughput screening.
To screen talin antagonist candidates, inhibition of the binding affinity between the CHO/αIIbβ3 cell line and fibrinogen was examined by the above-described efficacy testing method.
As a result, it was shown that compounds, including KCH-1420, KCH-1424, KCH-1510, KCH-1511, KCH-1512, KCH-1513, KCH-1516, KCH-1518, KCH-1521, KCH-1523, KCH-1526, KCH-1529, KCH-1530, and KCH-1542 inhibited the binding between the CHO/αIIbβ3 cell line and fibrinogen by at least 80% compared to a negative control (FIG. 2). […] In FIG. 3, like FIG. 2, cells expressing platelet integrin αIIbβ3 were incubated with varying concentrations of a candidate, and the binding between the cells and fibrinogen was examined. Cell adhesion on the Y-axis is the relative degree of cell-fibrinogen binding.

Test [2] deals with T1, talin protein (6×His-tagged F2F3 protein) (Homo sapiens, UniProt Q9Y490).
T1 construct: 6×His-tagged F2F3 protein containing F3 was isolated and purified; 6×His; made in house
T1 sequence (Q9Y490 196-405 limits assumed): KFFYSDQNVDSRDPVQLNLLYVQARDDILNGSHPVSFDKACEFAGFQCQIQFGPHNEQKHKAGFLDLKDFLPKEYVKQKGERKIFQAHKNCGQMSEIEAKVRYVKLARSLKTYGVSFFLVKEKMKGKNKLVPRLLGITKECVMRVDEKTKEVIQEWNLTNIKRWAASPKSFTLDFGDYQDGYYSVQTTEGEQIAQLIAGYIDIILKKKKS
The experiment in a line: Binding affinity between talin protein and candidate by surface plasmon resonance. Particulars: SPR, talin F2F3 immobilized on sensor chip; FIG. 4; read-out: affinity constant. The procedure:
To measure the binding affinity between the talin protein and a talin antagonist candidate, surface plasmon resonance spectroscopy was used. Specifically, a talin antagonist candidate was added to the talin protein immobilized on a sensor chip, and the affinity constant between the two substances was measured by surface plasmon resonance (hereinafter referred to as ‘SPR’) spectrometry.
Talin is divided into an N-terminal head domain and a C-terminal rod domain, and the head domain is further divided into four subdomains, F0, F1, F2 and F3. Among them, F3 is known as an integrin binding site. Thus, 6×His-tagged F2F3 protein containing F3 was isolated and purified. As a sensor chip for immobilizing the talin protein, HTEPBE10PO1 (Biorad) was used. SPR was measured using ProteON™ XPR36 (Biorad).

Test [3] has as its system mouse blood platelets. Nature of the test: Platelet aggregation inhibitory effect using mouse platelets activated by thrombin. In kind it is cell-based. Particulars: 0.2 mM compound, FIG. 5. The procedure: It is well known that platelets bind to fibrinogen in blood and form thrombi, which leads to the contraction of intracellular skeletal muscle due to signaling after the binding between activated integrin a αIIbβ3 and fibrinogen. To achieve this thrombus formation in vitro, mouse blood platelets were isolated and thrombin known as a platelet activator was added thereto. As a result, as shown in the left photograph of FIG. 5, the platelets were aggregated. However, when platelets were treated with thrombin in combination with KCH-1513 or KCH-1521, it was observed that platelet aggregation that was increased by thrombin decreased when 0.2 mM of KCH-1513 (middle photograph) or the same concentration of KCH-1521 (right photograph) was added.

The structures appear in SMILES notation.

As to `COc1ccccc1OCC(=O)NC(=O)NCCc1c[nH]c2ccccc12` [KCH-1529, N-((2-(1H-indol-3-yl)ethyl)carbamoyl)-2-(2-methoxyphenoxy)acetamide], the inhibition at 200 µM in test [1] was at least 80%.
The same measure, in the same setting: in the case of `O=C(Cn1nnc(-c2ccccc2)n1)NC(=O)Nc1ccccc1F` [KCH-1516, N-((2-fluorophenyl)carbamoyl)-2-(5-phenyl-2H-tetrazol-2-yl)acetamide] it was at least 80%.
On to `O=C(COc1ccc2c(c1)OCO2)NC(=O)NCCc1c[nH]c2ccccc12` [KCH-1521], for which the Kd in test [2] stood at 0.271 mM. The inhibition at 200 µM in test [1] is at least 80%. For the same compound, the “inhibition of thrombin-induced platelet aggregation” value in test [3] is “significantly inhibit platelet aggregation”.
As for `COc1ccc(CNC(=O)NC(=O)Cn2nnc(-c3ccccc3)n2)cc1` [KCH-1512, N-((4-methoxybenzyl)carbamoyl)-2-(5-phenyl-2H-tetrazol-2-yl)acetamide], the inhibition at 200 µM in test [1] was at least 80%.
The same measure, in the same setting: in the case of `COc1cc(NC(=O)NC(=O)Cn2nnc(-c3ccccc3)n2)ccc1Br` [KCH-1510, N-((4-bromo-3-methoxyphenyl)carbamoyl)-2-(5-phenyl-2H-tetrazol-2-yl)acetamide] it was at least 80%; in that of `COc1ccc(NC(=O)NC(=O)COc2ccccc2OC)c(OC)c1` [KCH-1530, N-((2,4-dimethoxyphenyl)carbamoyl)-2-(2-methoxyphenoxy)acetamide], at least 80%; in that of `O=C(Cn1nnc(-c2ccccc2)n1)NC(=O)Nc1ccc(Oc2ccccc2)cc1` [KCH-1511, N-((4-phenoxyphenyl)carbamoyl)-2-(5-phenyl-2H-tetrazol-2-yl)acetamide], at least 80%.
On the same count and under the same terms, in the case of `COc1cc(NC(=O)NC(=O)COc2ccc3c(c2)OCO3)ccc1Br` [KCH-1518, 2-(benzo[d][1,3]dioxo1-5-yloxy)-N-((4-bromo-3-methoxyphenyl)carbamoyl) acetamide] it was at least 80%; in that of `CC(C)(C)OC(=O)N1CCN(CC(=O)NC(=O)Nc2ccccc2F)CC1` [KCH-1424, tert-butyl 4-(2-(3-(2-fluorophenyl)ureido)-2-oxoethyl)piperazine-1-carboxylate], at least 80%; in that of `Cc1cccc(OCC(=O)NC(=O)Nc2ccccc2F)c1C` [KCH-1420, 2-(2,3-dimethylphenoxy)-N-((2-fluorophenyl)carbamoyl)acetamide], at least 80%.
With `COc1cc(NC(=O)NC(=O)COc2ccccc2OC)ccc1Br` [KCH-1526, N-((4-bromo-3-methoxyphenyl)carbamoyl)-2-(2-methoxyphenoxy)acetamide], the inhibition at 200 µM in test [1] is at least 80%.
Same read-out and setting: next, `COc1ccc(NC(=O)NC(=O)COc2cccc(Br)c2)c(OC)c1` [KCH-1542, 2-(3-bromophenoxy)-N-((2,4-dimethoxyphenyl)carbamoyl)acetamide]: at least 80%.
Take `O=C(Cn1nnc(-c2ccccc2)n1)NC(=O)NCCC1=CNC2C=CC=CC12` (stereo not drawn) [KCH-1513, N-((2-(3a,7a-dihydro-1H-indol-3-yl)ethyl)carbamoyl)-2-(5-phenyl-2H-tetrazol-2-yl)acetamide]: the Kd in test [2] is 9.33 mM. Besides, the inhibition at 200 µM in test [1] is at least 80%. Moreover, in test [3], the “inhibition of thrombin-induced platelet aggregation” value was “significantly inhibit platelet aggregation”.
In the case of `O=C(COc1ccc2c(c1)OCO2)NC(=O)Nc1ccc(OCc2ccccc2)cc1` [KCH-1523, 2-(benzo[d][1,3]dioxol-5-yloxy)-N-((4-(benzyloxy)phenyl)carbamoyl) acetamide], the inhibition at 200 µM in test [1] was at least 80%.
